The record followed here is ChEMBL document CHEMBL1149623, “Identification of antibacterial and antiviral activities of novel fused 1,2,4-triazine esters” (2007).

Experiment [1] has as its system Human adenovirus 5. In words: Antiviral activity against Human adenovirus 5 in HEK293 cells assessed as inhibition of virus titre at 200 ug/mL after 24 hrs by CPE method. The format is functional. To be noted: Human mastadenovirus C, HEK293, 24 h.
Experiment [2] has as its system Echovirus E9. In words: Antiviral activity against Human echovirus 9 in GMK cells assessed as virus titre at 50 ug/mL after 1 hr. The format is functional.
A short description of experiment [3]: Cytotoxicity against monkey GMK cells at 2.5 ug/mL after 24 hrs by MTT assay. The format is functional, Chlorocebus aethiops.
The nature of experiment [4]: Cytotoxicity against monkey GMK cells at 50 ug/mL after 120 hrs by MTT assay. The format is functional, Chlorocebus aethiops.
Experiment [5] deals with HEK293. The experiment in a line: Cytotoxicity against human HEK293 cells at 25 ug/mL after 72 hrs by MTT assay. The format is functional. A general note: Formazan colour is commonly taken as a measure of viable cells.
The test system of experiment [6] is HEK293. The experiment in a line: Cytotoxicity against human HEK293 cells at 100 ug/mL after 120 hrs by MTT assay. The format is functional.
In experiment [7] the test system is Staphylococcus epidermidis. In words: Antibacterial activity against Staphylococcus epidermidis at 100 mg/mL after 24 hrs by disc diffusion method. The format is functional.
Experiment [8] is described as follows: Cytotoxicity against monkey GMK cells at 10 ug/mL after 72 hrs by MTT assay. The format is functional, Chlorocebus aethiops.
Experiment [9] can be described thus: Cytotoxicity against monkey GMK cells at 2.5 ug/mL after 96 hrs by MTT assay. The format is functional, Chlorocebus aethiops.
Another experiment has as its system Escherichia coli. The experiment in a line: Antibacterial activity against Escherichia coli ATCC 25922 at 100 mg/mL after 24 hrs by disc diffusion method. The format is functional. Background: A growth-free zone around the sample is the usual read-out of agar diffusion tests.
Experiment [10] in a line: Cytotoxicity against monkey GMK cells at 25 ug/mL after 48 hrs by MTT assay. The format is functional, Chlorocebus aethiops.
In experiment [11] the test system is HEK293. In words: Cytotoxicity against human HEK293 cells at 2.5 ug/mL after 72 hrs by MTT assay. The format is functional.
The subject of the next experiment is Streptococcus pyogenes. In words: Antibacterial activity against Streptococcus pyogenes at 100 mg/mL after 24 hrs by disc diffusion method. The format is functional.
A short description of experiment [12]: Cytotoxicity against monkey GMK cells at 200 ug/mL after 120 hrs by MTT assay. The format is functional, Chlorocebus aethiops.
The subject of experiment [13] is HEK293. The experiment in a line: Cytotoxicity against human HEK293 cells at 5 ug/mL after 120 hrs by MTT assay. The format is functional.
Experiment [14] in a line: Cytotoxicity against monkey GMK cells at 5 ug/mL after 120 hrs by MTT assay. The format is functional, Chlorocebus aethiops.
A short description of experiment [15]: Cytotoxicity against monkey GMK cells at 200 ug/mL after 48 hrs by MTT assay. The format is functional, Chlorocebus aethiops.
In the next experiment the test system is Staphylococcus aureus. The experiment in a line: Antibacterial activity against Staphylococcus aureus ATCC 25923 at 100 mg/mL after 24 hrs by disc diffusion method. The format is functional.
Experiment [16] is described as follows: Cytotoxicity against monkey GMK cells at 100 ug/mL after 96 hrs by MTT assay. The format is functional, Chlorocebus aethiops.
The test system of experiment [17] is HEK293. The experiment in a line: Cytotoxicity against human HEK293 cells at 2.5 ug/mL after 120 hrs by MTT assay. The format is functional.
Experiment [18] concerns Echovirus E9. In words: Antiviral activity against Human echovirus 9 in GMK cells assessed as inhibition of virus titre at 100 ug/mL after 24 hrs by CPE method. The format is functional. The conditions noted are these: Enterovirus B.
The test system of experiment [19] is HEK293. In words: Cytotoxicity against human HEK293 cells at 50 ug/mL after 120 hrs by MTT assay. The format is functional.
The test system of experiment [20] is HEK293. The experiment in a line: Cytotoxicity against human HEK293 cells at 25 ug/mL after 96 hrs by MTT assay. The format is functional.
The nature of experiment [21]: Cytotoxicity against monkey GMK cells at 10 ug/mL after 24 hrs by MTT assay. The format is functional, Chlorocebus aethiops.
Experiment [22] can be described thus: Cytotoxicity against monkey GMK cells at 10 ug/mL after 48 hrs by MTT assay. The format is functional, Chlorocebus aethiops.
The subject of experiment [23] is Human adenovirus 5. In words: Antiviral activity against Human adenovirus 5 in HEK293 cells assessed as inhibition of virus titre at 50 ug/mL after 24 hrs by CPE method. The format is functional. To be noted: Human mastadenovirus C, HEK293, 24 h.
Experiment [24] deals with Human adenovirus 5. In words: Antiviral activity against Human adenovirus 5 in HEK293 cells assessed as inhibition of virus titre at 100 ug/mL after 24 hrs by CPE method. The format is functional. To be noted: Human mastadenovirus C, HEK293, 24 h.
Experiment [25] concerns Echovirus E9. In words: Antiviral activity against Human echovirus 9 in GMK cells assessed as inhibition of virus titre at 200 ug/mL after 24 hrs by CPE method. The format is functional. The conditions noted are these: Enterovirus B.
Experiment [26] concerns Echovirus E9. In words: Antiviral activity against Human echovirus 9 in GMK cells assessed as inhibition of virus titre at 50 ug/mL after 24 hrs by CPE method. The format is functional. To be noted: Enterovirus B.

The term inhibition denotes the drop in the measured response relative to a control, in per cent. With `COC(=O)CC1NN=C2N(CCN2c2cccc(Cl)c2)C1=O` (configuration not stated), the inhibition at 200 µg/mL in the experiment with Human adenovirus 5 [1] was found to be 8%. Besides, the TCID50 in the experiment on Echovirus E9 [2] amounted to 3.33 mL⁻¹. Besides, the Activity in experiment [3] amounted to 100%; in experiment [4], 90%; in the experiment on HEK293 [5] it was 98%; in the experiment with HEK293 [6] it was 50%; in [8], 100%; in experiment [9], 100%. For the same compound, the Activity was found to be 100% in experiment [10]; 100% in the experiment with HEK293 [11]; 0% in experiment [12]; 100% in the experiment on HEK293 [13]; 100% in [14]; 10% in experiment [15]. The Activity in [16] came out at 0%; with HEK293 [17], 100%; in the experiment with HEK293 [19], 90%; with HEK293 [20] it was 95%; in experiment [21], 100%; in [22], 100%. Further, the Inhibition in [7] is reported as 16 mm; in the experiment on Escherichia coli it was above 20 mm; with Streptococcus pyogenes, 10 mm; with Staphylococcus aureus, 16 mm. Also, the inhibition at 100 µg/mL with Echovirus E9 [18] turned out to be 9.9%.

Regarding `CCOC(=O)CC1NN=C2N(CCN2c2ccc(C)cc2)C1=O` (configuration not stated), in the experiment on Human adenovirus 5 [1], the inhibition at 200 µg/mL is 23%. Besides, the TCID50 in the experiment on Echovirus E9 [2] was 3.67 mL⁻¹. Besides, the Activity in experiment [3] is listed as 100%; in [4], 70%; in the experiment on HEK293 [5] it was 100%; with HEK293 [6], 70%; in experiment [8], 100%; in [9], 100%. Also, the Activity is recorded as 90% in experiment [10]; 100% with HEK293 [11]; 0% in experiment [12]; 100% in the experiment on HEK293 [13]; 100% in [14]; 0% in [15]. The Activity in experiment [16] is 70%; in the experiment with HEK293 [17], 100%; in the experiment with HEK293 [19], 75%; with HEK293 [20], 95%; in experiment [21], 100%; in experiment [22], 100%. For the same compound, the inhibition at 50 µg/mL in the experiment on Human adenovirus 5 [23] was 23%. In the experiment with Human adenovirus 5 [24], the inhibition at 100 µg/mL came to 23%.

Regarding `CCOC(=O)CC1NN=C2N(CCN2c2ccc(Cl)cc2)C1=O` (configuration not stated), the TCID50 in the experiment on Echovirus E9 [2] worked out at 4.23 mL⁻¹. In addition, the Activity in experiment [3] came out at 100%; in experiment [4] it was 100%; with HEK293 [5], 100%; in the experiment on HEK293 [6] it was 50%; in [8], 100%; in experiment [9] it was 100%. The Activity in experiment [10] is listed as 100%; in the experiment with HEK293 [11], 100%; in [12] it was 95%; in the experiment on HEK293 [13], 100%; in [14], 100%; in experiment [15], 100%. Besides, the Activity (in [16]; in the experiment with HEK293 [17]; in the experiment with HEK293 [19]; in the experiment with HEK293 [20]; in experiment [21]; in experiment [22]) was 100% each time. For the same compound, the inhibition at 200 µg/mL in the experiment on Echovirus E9 [25] was 25%. The Inhibition is listed as 16 mm in [7], 10 mm in the experiment with Escherichia coli, above 20 mm in the experiment with Streptococcus pyogenes and below 9 mm in the experiment on Staphylococcus aureus. The inhibition at 50 µg/mL in the experiment on Echovirus E9 [26] was 9.4%.
